Measurements published in patent publication US20220305115A1 (JANSSEN SCIENCES IRELAND UNLIMITED COMPANY, priority 2019, published 2022).

Columns and labels:
Format in all cases: cell-based
human TLR7 = target: T1, human TLR7 (Homo sapiens, UniProt Q9NYK1); assay: HEK-Blue human TLR7 cell SEAP reporter assay (NF-κB activation); conditions: HEK-Blue human TLR7 cells, stimulation for 20 hours, Quanti Blue read at 640 nm
T1 construct: host or cells: HEK-Blue human TLR7 cells (HEK293-derived reporter line)
T1 sequence (Q9NYK1 27-1049): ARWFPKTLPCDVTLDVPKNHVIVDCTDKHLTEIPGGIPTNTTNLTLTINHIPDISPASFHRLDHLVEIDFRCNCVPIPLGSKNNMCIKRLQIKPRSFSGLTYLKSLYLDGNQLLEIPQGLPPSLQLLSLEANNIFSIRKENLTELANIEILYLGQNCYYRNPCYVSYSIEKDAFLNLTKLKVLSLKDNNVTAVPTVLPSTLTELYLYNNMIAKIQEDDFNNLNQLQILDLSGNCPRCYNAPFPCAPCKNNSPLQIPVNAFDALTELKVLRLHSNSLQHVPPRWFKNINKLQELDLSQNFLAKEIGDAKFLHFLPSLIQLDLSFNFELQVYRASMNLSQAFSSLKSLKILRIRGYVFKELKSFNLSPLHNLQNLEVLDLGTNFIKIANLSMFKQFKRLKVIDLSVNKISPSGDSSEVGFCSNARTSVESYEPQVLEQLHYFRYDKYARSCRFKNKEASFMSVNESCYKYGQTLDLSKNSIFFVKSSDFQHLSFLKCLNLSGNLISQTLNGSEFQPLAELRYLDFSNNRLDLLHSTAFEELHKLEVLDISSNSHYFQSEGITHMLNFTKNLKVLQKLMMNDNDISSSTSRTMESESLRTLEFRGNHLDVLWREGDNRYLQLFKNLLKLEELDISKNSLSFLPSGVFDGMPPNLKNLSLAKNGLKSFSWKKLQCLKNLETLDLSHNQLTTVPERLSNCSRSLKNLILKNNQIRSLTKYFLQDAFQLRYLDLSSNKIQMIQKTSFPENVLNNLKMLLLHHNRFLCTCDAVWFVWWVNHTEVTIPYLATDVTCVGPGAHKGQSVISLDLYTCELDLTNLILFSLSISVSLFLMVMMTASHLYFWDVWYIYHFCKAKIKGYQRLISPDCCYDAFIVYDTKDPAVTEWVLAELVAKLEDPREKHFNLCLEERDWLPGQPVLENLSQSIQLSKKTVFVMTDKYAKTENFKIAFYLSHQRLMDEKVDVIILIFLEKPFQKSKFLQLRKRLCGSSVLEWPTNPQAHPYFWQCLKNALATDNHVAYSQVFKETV
Description: For TLR8 and TLR7 activity testing, HEK-Blue human TLR8 or TLR7 cells (Invivogen, San Diego, Calif., USA) are used, respectively. These cells are designed for studying the stimulation of human TLR8 or TLR7 by monitoring the activation of NF-κB. A SEAP (secreted embryonic alkaline phosphatase) reporter gene is placed under the control of the IFN-b minimal promoter fused to five NF-κB and AP-1-binding sites. Therefore the reporter expression is regulated by the NF-κB promoter upon stimulation of human TLR8 or TLR7 for 20 hours. The cell culture supernatant SEAP reporter activity was determined using Quanti Blue kit (Invivogen, San Diego, Ca, USA) at a wavelength of 640 nm, a detection medium that turns purple/blue in the presence of alkaline phosphatase. EC50 values were determined using Activity Base analysis (ID Business Solution, Limited).

[1] = Off-target cytotoxicity, MT-4 cells (Cell Titer Glo, 5 days); conditions: human, MT-4, five days incubation, intracellular ATP, read-out: CC50 (MT4)
Description: (§1) To assess potential off-target toxicity of certain compounds disclosed herein, the in vitro cytotoxicity of those compounds was profiled using a panel of 5 cell lines with various tissue origins. Compound cytotoxicity was examined in hepatoma-derived Huh-7 and HepG2 cells, prostate carcinoma-derived PC-3 cells, lymphoma derived MT-4 cells and a normal diploid lung cell line MRC-5. HepG2 and PC-3 cells used were adapted to grow in glucose-free galactose-containing medium. […] Cell viability was determined by measuring intracellular ATP levels following five days of continuous incubation with test compounds.
(§2) The MT-4 cell line (HTLV-1 transformed, human T lymphoblastoid cells) was obtained from the NIH AIDS Reagent program (Bathesda, Md.). The human hepatoblastoma cell line HepG2, human prostate carcinoma cell line PC-3, and normal fetal lung derived MRC-5 cells were obtained from the American Type Culture Collection (ATCC, Manassas, Va.).
(§3) Huh-7 cells were maintained in Dulbecco's Modified Eagle Medium (DMEM) supplemented with 10% fetal bovine serum (FBS, Hyclone, Logan, Utah), 1% non-essential amino acids (Gibco, Carlsbad, Calif.). PC-3 and HepG2 cells were adapted to grow in 0.2% galactose-containing, glucose-free Dulbecco's Modified Eagle Medium (DMEM) supplemented with 10% fetal bovine serum (FBS, Hyclone, Logan, Utah), 1% non-essential amino acids (Gibco, Carlsbad, Calif.), 1% Pyruvate (Cellgro), 1% Glutamax (Invitrogen, Carlsbad, Calif.). Galactose-adapted cells were maintained in the same culture medium. MRC-5 cells were maintained in Eagle's Minimum Essential Medium (EMEM) supplemented with 10% fetal bovine serum (FBS, Hyclone, Logan, Utah). […] All cell culture media were also supplemented with 100 Units/mL penicillin, 100 μg/mL streptomycin (Gibco).
For the MT-4 cytotoxicity assay, 0.4 μL of serially diluted compounds were added to 40 μl of cell maintenance media in 384-well black, solid bottom plate using a Biomek FX workstation (Beckman Coulter). Two thousand cells in 35 μL were added to each well using a Biotek uFlow Workstation (Biotek). […] Assay plates were incubated for five days at 37° C. in an incubator set at 5% CO2 and 90% humidity. After five days, 22 μL of Cell Titer Glo reagent (Promega) was added to the assay plates with a Biotek uFlow Workstation. Plates were subsequently placed on a Perkin Elmer Envision Plate Reader for five minutes before the luminescence signal was read.

[2] = Off-target cytotoxicity, galactose-adapted PC-3 cells (Cell Titer Glo, 5 days); conditions: human, galactose-adapted PC-3, five days incubation, intracellular ATP, read-out: CC50 GALFC3 CTG 50
Description: as §1, §2, §3
Using a Biotek uFlow Workstation (Biotek, Winooski, Vt.), 1500 HepG2, 1500 PC-3, 500 Huh7 or 1500 MRC-5 cells in 90 μL of culture media were dispensed into each well of black polystyrene tissue culture-treated 384-well plates. Plated cells were incubated for 24 hours in an incubator at 37° C., 5% CO2 and 90% humidity. Compound serial dilutions were performed in 100% DMSO in 384-well polypropylene (high recovery) plates on a Biomek FX Workstation (Beckman Coulter, Fullerton, Calif.). After 3-fold serial dilutions, 0.4 μL of compounds were transferred into 384-well plates containing cells using a Velocity 11 system equipped with a Bravo 384-well pipettor. The DMSO concentration in the final assay plates was 0.44% (v/v). Cells were incubated with compound(s) for five days at 37° C.
(§4) At the end of the incubation period the cytotoxicity assay was performed as follows: Media from 384-well cell culture plates were aspirated with a Biotek EL405 plate-washer (Biotek) and cells were washed with 100 μL PBS once. Twenty microliters of Cell Titer Glo (Promega, Madison, Wis.) was added to each well of the plates with a Biotek uFlow liquid dispenser. Plates were incubated for 15 minutes at room temperature before luminescence was measured with a Perkin Elmer Envision Plate Reader (Perkin Elmer, Waltham, Mass.).

Huh-7 cells = assay: Off-target cytotoxicity, Huh-7 cells (Cell Titer Glo, 5 days); conditions: Huh-7, five days incubation, intracellular ATP; read-out: CC50 HEH7 CTG 50
Description: (§5) To assess potential off-target toxicity of certain compounds disclosed herein, the in vitro cytotoxicity of those compounds was profiled using a panel of 5 cell lines with various tissue origins. Compound cytotoxicity was examined in hepatoma-derived Huh-7 and HepG2 cells, prostate carcinoma-derived PC-3 cells, lymphoma derived MT-4 cells and a normal diploid lung cell line MRC-5. HepG2 and PC-3 cells used were adapted to grow in glucose-free galactose-containing medium. These cells have a relatively higher sensitivity to inhibitors of mitochondrial oxidative phosphorylation compared to the same cells maintained in standard glucose-containing culture medium (Marroquin et al., Toxicol. Sci. 2007; 97 (2):539-47). Cell viability was determined by measuring intracellular ATP levels following five days of continuous incubation with test compounds.
as §2, with “The human hepatoma Huh-7 cell line was obtained from ReBLikon GmbH (Mainz, Germany) {20879}. The MT-4” for “The MT-4”
(§6) Huh-7 cells were maintained in Dulbecco's Modified Eagle Medium (DMEM) supplemented with 10% fetal bovine serum (FBS, Hyclone, Logan, Utah), 1% non-essential amino acids (Gibco, Carlsbad, Calif.). PC-3 and HepG2 cells were adapted to grow in 0.2% galactose-containing, glucose-free Dulbecco's Modified Eagle Medium (DMEM) supplemented with 10% fetal bovine serum (FBS, Hyclone, Logan, Utah), 1% non-essential amino acids (Gibco, Carlsbad, Calif.), 1% Pyruvate (Cellgro), 1% Glutamax (Invitrogen, Carlsbad, Calif.). Galactose-adapted cells were maintained in the same culture medium. MRC-5 cells were maintained in Eagle's Minimum Essential Medium (EMEM) supplemented with 10% fetal bovine serum (FBS, Hyclone, Logan, Utah). MT-4 cells were maintained in RPMI-1640 supplemented with 10% fetal bovine serum (FBS, Hyclone, Logan, Utah). All cell culture media were also supplemented with 100 Units/mL penicillin, 100 μg/mL streptomycin (Gibco).
(§7) Using a Biotek uFlow Workstation (Biotek, Winooski, Vt.), 1500 HepG2, 1500 PC-3, 500 Huh7 or 1500 MRC-5 cells in 90 μL of culture media were dispensed into each well of black polystyrene tissue culture-treated 384-well plates. Plated cells were incubated for 24 hours in an incubator at 37° C., 5% CO2 and 90% humidity. Compound serial dilutions were performed in 100% DMSO in 384-well polypropylene (high recovery) plates on a Biomek FX Workstation (Beckman Coulter, Fullerton, Calif.). After 3-fold serial dilutions, 0.4 μL of compounds were transferred into 384-well plates containing cells using a Velocity 11 system equipped with a Bravo 384-well pipettor. The DMSO concentration in the final assay plates was 0.44% (v/v). Cells were incubated with compound(s) for five days at 37° C. Puromycin (44 μM final concentration) and DMSO (0.44%, v/v) were used as a positive and negative controls, respectively
as §4
(§8) CC50 values were defined as the compound concentration that caused a 50% decrease in luminescence signal, and were calculated by non-linear regression using Pipeline Pilot software by applying a four parameter fit equation (Accelrys, San Diego, Calif.). Individual CC50 values are listed as μM concentrations.

[3] = Off-target cytotoxicity, galactose-adapted HepG2 cells (Cell Titer Glo, 5 days); conditions: human, galactose-adapted HepG2, five days incubation, intracellular ATP, read-out: CC50 GALHEPG2 CTG 50
Description: as §5
as §2, with “The human hepatoma Huh-7 cell line was obtained from ReBLikon GmbH (Mainz, Germany) {20879}. The MT-4” for “The MT-4”
as §6, §7, §4, §8

MRC-5 cells = assay: Off-target cytotoxicity, MRC-5 cells (Cell Titer Glo, 5 days); conditions: MRC-5, five days incubation, intracellular ATP; read-out: CC50 MHCS CTG 50
Description: as §5
as §2, with “The human hepatoma Huh-7 cell line was obtained from ReBLikon GmbH (Mainz, Germany) {20879}. The MT-4” for “The MT-4”
as §6, §7, §4, §8

| EC50 (human TLR7) | SMILES | CC50 at 5 days [1] | CC50 at 5 days [2] | CC50 (Huh-7 cells) | CC50 at 5 days [3] | CC50 (MRC-5 cells) |
| --- | --- | --- | --- | --- | --- | --- |
| > 100 µM | CCCN(CC(C)C)C(=O)C1=Cc2ccc(C3=NCc4ccccc4N3)cc2N=C(N)C1 [Example 4, 2-Amino-8-(1,4-dihydroquinazolin-2-yl)-N-isobutyl-N-propyl-3H-1-benzazepine-4-carboxamide] | – | – | – | – | – |
| – | CCCC[C@@H](Nc1nc(N)nc2cc(F)cnc12)C(O)CF (stereo partly drawn) [Compound 102, (3R)-3-((2-amino-7-fluoropyrido[3,2-d]pyrimidin-4-yl)amino)-1-fluoroheptan-2-ol] | 57.1 µM | 19.1 µM | 44.4 µM | 27.4 µM | 44.4 µM |
| – | CCCC[C@](C)(CNC(C)=O)Nc1nc(N)nc2cc(Cl)cnc12 [Compound 65, (R)—N-(2-((2-amino-7-chloropyrido[3,2-d]pyrimidin-4-yl)amino)-2-methylhexyl)acetamide] | 56.6 µM | 44.4 µM | 44.4 µM | ≥ 44.4 µM | 44.4 µM |
| > 100 µM | CCCN(CC1CC1)C(=O)C1=Cc2ccc(C3=NCc4ccccc4N3)cc2N=C(N)C1 [Example 3, 2-Amino-N-(cyclopropylmethyl)-8-(1,4-dihydroquinazolin-2-yl)-N-propyl-3H-1-benzazepine-4-carboxamide] | – | – | – | – | – |
| – | CCCC[C@](C)(CNC(C)=O)Nc1nc(N)nc2cc(F)cnc12 [Compound 101, (R)—N-(2-((2-amino-7-fluoropyrido[3,2-d]pyrimidin-4-yl)amino)-2-methylhexyl)acetamide] | 56.6 µM | 44.4 µM | 44.4 µM | ≥ 44.4 µM | 44.4 µM |
| > 100 µM | CCCN(CCC)C(=O)C1=Cc2ccc(C3=NCc4ccncc4N3)cc2N=C(N)C1 [Example 2, 2-Amino-8-(1,4-dihydropyrido[3,4-d]pyrimidin-2-yl)-N,N-dipropyl-3H-1-benzazepine-4-carboxamide] | – | – | – | – | – |
| > 100 µM | CCCN(CCC)C(=O)C1=Cc2ccc(C3=NCc4ccc(Cl)cc4N3)cc2N=C(N)C1 [Example 6, 2-Amino-8-(7-chloro-1,4-dihydroquinazolin-2-yl)-N,N-dipropyl-3H-1-benzazepine-4-carboxamide] | – | – | – | – | – |
| > 100 µM | CCCN(CCC)C(=O)C1=Cc2ccc(C3=NCc4ccccc4N3)cc2N=C(N)C1 [Example 1, 2-Amino-8-(1,4-dihydroquinazolin-2-yl)-N,N-dipropyl-3H-1-benzazepine-4-carboxamide] | – | – | – | – | – |
| > 100 µM | CCCN(CCC)C(=O)C1=Cc2ccc(C3=NCc4c(Cl)cccc4N3)cc2N=C(N)C1 [Example 5, 2-Amino-8-(5-chloro-1,4-dihydroquinazolin-2-yl)-N,N-dipropyl-3H-1-benzazepine-4-carboxamide] | – | – | – | – | – |
